The source of these data is article PMC9114115, “Property space mapping of Pseudomonas aeruginosa permeability to small molecules” (Scientific Reports, 2022).

Structures are written as SMILES. In brackets after ≈: the same amount, converted by molar mass. Several values for one entry are separate records, joined by “and”; a condition that tells them apart may be missing. Equal values may be shown once. Read-outs that look alike come from different tables or passages of the source. A value given as a limit tells only on which side of the number the result lay.

Data set [1] concerns P. aeruginosa hyperporinated strains. The experiment in a line: Vancomycin susceptibility spot assay on minimal medium. The following applies: MOPS-M9 medium, in the presence of inducer. It counts as cell-based, Pseudomonas aeruginosa. On the procedure:
PAO1-Pore and PΔ3-Pore were grown at 37 °C overnight with shaking at 225 rpm in 50 mM MOPS-M9 (pH 7.2) Minimal Medium supplemented with 1% glycerol[42],[43].

The test system of another data set is P. aeruginosa PAO1. Briefly: MIC by two-fold dilution, wild type PAO1. Format: cell-based, Pseudomonas aeruginosa. Particulars: Pseudomonas aeruginosa. The essentials: (§1)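 Media differed between series: LB or MOPS-M9. Hyperporinated strains express FhuA from PLAC at the attTn7 site, and the efflux-deficient ones are ΔmexAB ΔmexCD ΔmexXY.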
In a further data set the test system is P. aeruginosa PAO1-Pore. Briefly: MIC by two-fold dilution, hyperporinated PAO1-Pore. It counts as cell-based, Pseudomonas aeruginosa. The following applies: for MIC: Pseudomonas aeruginosa. The essentials: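 Read-out: MIC. Method: two-fold serial dilution in LB broth or MOPS-M9, by series. Culture: 37 °C, aerated. Genotypes: PAO1 attTn7::PLAC-fhuA; ΔmexAB ΔmexCD ΔmexXY attTn7::PLAC-fhuA.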

A further data set relates to P. aeruginosa PΔ3. The experiment in a line: microbe, parasite or virus in culture. Format: cell-based, Pseudomonas aeruginosa. Particulars: Pseudomonas aeruginosa. The essentials: as §1
For a further data set, the system named is P. aeruginosa PΔ3-Pore. Briefly: MIC by two-fold dilution, barrierless PΔ3-Pore. It counts as cell-based, Pseudomonas aeruginosa. The following applies: for MIC: Pseudomonas aeruginosa. Put shortly: as §1
For data set [2], the system named is four strains of P. aeruginosa. It counts as cell-based, Pseudomonas aeruginosa. The procedure:
Cells were sub-cultured (50–100 mL) 1:100 in fresh LB broth in two flasks per strain. At OD600 0.3 (~ 1.5 to 2 h of incubation), the expression of the pore was induced with 0.1 mM IPTG (final concentration) in one of the flasks and cells were grown for additional 1 to 1.5 h (OD600 1- 1.5). Cells were collected by centrifugation at room temperature (RT) and washed in PMG Buffer (50 mM KPi, pH 7.0, 1 mM MgSO4, 0.4% glucose, prepared fresh) and concentrated 20x (i.e., 100 mL culture resuspended in 5 ml of PMG Buffer with final OD600 ~ 20–30). Assays were performed in 96-well 1.0 µm Glass Fiber Type B filters plates (Millipore). […]
[…] Filter plates were dried, removed from the vacuum manifold and left in the hood overnight to dry completely.

A further data set deals with P. aeruginosa PAO1 cells. Briefly: LC–MS quantification of intracellular accumulation, PAO1.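 Further: slope of accumulation versus external concentration fitted as a line through zero.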 Particulars: 10-80 µM. The essentials:
(§2)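 Cells grown in MOPS-M9 (pH 7.2) with 1% glycerol, Pore strains induced with 0.1 mM IPTG, concentrated 10X in spent medium and exposed to 10, 20, 40, 80 µM compound for 1 and 40 min at RT. Filter-collected cells extracted with methanol; compound quantified by positive-ion LC–MS against calibration in PAO1 cell extract, no-cell filter controls.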

The subject of data set [3] is P. aeruginosa PAO1-Pore cells. The experiment in a line: LC–MS quantification of intracellular accumulation, PAO1-Pore.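 Further: slope of accumulation versus external concentration fitted as a line through zero.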 Particulars: 10-80 µM. Put shortly: as §2
A further data set relates to P. aeruginosa PΔ3 cells. Particulars: 10-80 µM. Put shortly: as §2
The test system of data set [4] is P. aeruginosa PΔ3-Pore cells. The experiment in a line: LC–MS quantification of intracellular accumulation, PΔ3-Pore. Particulars: 10-80 µM. Put shortly: as §2
Setting [5] is: PAO1, LB broth, Table 1, read-out: MIC.
Setting [6] is: radioactively labeled compound, four strains, 20 min.
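Wherever Concentration slopes of accumulation, PΔ3 1 min is given: slope of accumulation versus external concentration fitted as a line through zero.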
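Wherever Concentration slopes of accumulation, PΔ3 40 min is given: slope of accumulation versus external concentration fitted as a line through zero.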

Consider `CN[C@H](CC(C)C)C(=O)N[C@H]1C(=O)N[C@@H](CC(N)=O)C(=O)N[C@H]2C(=O)N[C@H]3C(=O)N[C@H](C(=O)N[C@H](C(=O)O)c4cc(O)cc(O)c4-c4cc3ccc4O)[C@H](O)c3ccc(c(Cl)c3)Oc3cc2cc(c3O[C@@H]2O[C@H](CO)[C@@H](O)[C@H](O)[C@H]2O[C@H]2C[C@](C)(N)[C@H](O)[C@H](C)O2)Oc2ccc(cc2Cl)[C@H]1O` [vancomycin], for which, in data set [1], the “susceptibility in spot assay” value was “highly susceptible”.
As to `O=C(O)c1cn(C2CC2)c2cc(N3CCNCC3)c(F)cc2c1=O` [OU-0001036, Ciprofloxacin], the MIC in the data set on P. aeruginosa PAO1 (setting [5]) was 0.19 µM and 0.06 µg/mL; with P. aeruginosa PAO1 (PAO1, MOPS-M9 medium, read-out: MICs), 1 µM and 0.33 µg/mL; against P. aeruginosa PAO1-Pore (PAO1), 0.09 µM and 0.03 µg/mL; in the data set with P. aeruginosa PAO1-Pore (PAO1, read-out: MICs), 0.0625 µM and 0.02 µg/mL; with P. aeruginosa PΔ3, 0.05 µM and 0.02 µg/mL; in the data set with P. aeruginosa PΔ3 (read-out: MICs), 0.25 µM and 0.08 µg/mL. Further, the MIC was 0.02 µM and 0.01 µg/mL against P. aeruginosa PΔ3-Pore (PΔ3-Pore, LB broth, Table 1); 0.031 µM and 0.01 µg/mL with P. aeruginosa PΔ3-Pore (read-out: MICs, P∆3-Pore, MOPS-M9 medium). Also, in the data set on P. aeruginosa PAO1-Pore (MIC PAO1 vs PAO1-Pore), the “effect of hyperporination on antibacterial activity” value was “two-fold”. Further, the MICs in the data set on P. aeruginosa PAO1-Pore (PAO1-Pore, LB broth, Table S2) is listed as 0.09; in the data set on P. aeruginosa PΔ3-Pore (P∆3-Pore, LB broth, Table S2), 0.02. Further, in [2] (setting [6]), the “effect of efflux inactivation and hyperporination on accumulation” value (“effect … on accumulation” for short) is on record as “inactivation of efflux led to significantly higher levels of accumulation”. Besides, the “Concentration slopes of accumulation, PAO1_1 min” value in the data set on P. aeruginosa PAO1 cells (1 min incubation) was 1.15. For the same molecule, the “Concentration slopes of accumulation, PAO1_40 min” value with P. aeruginosa PAO1 cells (40 min incubation) came out at 2.47. Also, the “Concentration slopes of accumulation, PAO1-Pore_1 min” value in data set [3] (1 min incubation) was 3.53. Also, the “Concentration slopes of accumulation, PAO1-Pore_40 min” value in data set [3] (40 min incubation) is 3.32. Also, the “Concentration slopes of accumulation, PΔ3_1 min” value in the data set on P. aeruginosa PΔ3 cells (1 min incubation) came to 2.99. Further, the “Concentration slopes of accumulation, PΔ3_40 min” value in the data set with P. aeruginosa PΔ3 cells (40 min incubation) is recorded as 1.33. Moreover, in [4] (1 min incubation), the “Concentration slopes of accumulation, PΔ3-Pore_1 min” value worked out at 2.77. Further, the “Concentration slopes of accumulation, PΔ3-Pore_40min” value in [4] (40 min incubation) is reported as 2.77.
On to `NC(=O)Cc1cccc(C(=O)c2ccccc2)c1N` [Nepafenac], for which the MIC is above 1000 µM against P. aeruginosa PAO1 (PAO1); above 1000 µM in the data set on P. aeruginosa PAO1-Pore (PAO1); above 1000 µM in the data set with P. aeruginosa PΔ3; above 1000 µM in the data set with P. aeruginosa PΔ3-Pore (PΔ3-Pore, LB broth, Table 1). Also, the “effect … on accumulation” value in data set [2] (setting [6]) is “Hyperporination had the strongest effect”.
For `O=C1Nc2ccc(Cl)cc2[C@@](C#CC2CC2)(C(F)(F)F)O1` [Efavirenz], the MIC in the data set with P. aeruginosa PAO1 (setting [5]) is above 1000 µM; in the data set with P. aeruginosa PAO1-Pore (PAO1), above 1000 µM; in the data set on P. aeruginosa PΔ3 it was above 1000 µM; in the data set on P. aeruginosa PΔ3-Pore (PΔ3-Pore cells), 25000 µM (≈ 7890 µg/mL); in the data set with P. aeruginosa PΔ3-Pore (PΔ3-Pore, LB broth, Table 1), 25 µM and 7.89 µg/mL. Besides, in data set [2] (not told), the “effect … on accumulation” value is given as “Hyperporination had the strongest effect”.
For `CC(C)Nc1cccnc1N1CCN(C(=O)c2cc3cc(NS(C)(=O)=O)ccc3[nH]2)CC1` [Delavirdine], the MIC in the data set with P. aeruginosa PAO1 (setting [5]) was above 1000 µM; with P. aeruginosa PAO1-Pore (PAO1), above 1000 µM; with P. aeruginosa PΔ3, above 1000 µM; against P. aeruginosa PΔ3-Pore (PΔ3-Pore, LB broth, Table 1), above 1000 µM. In addition, the “effect … on accumulation” value is “equally affected by inactivation of efflux and hyperporination” in data set [2] (setting [6]); “Hyperporination had the strongest effect” in [2] (radioactively labeled compound, four strains, 20 min, listed as [^3H]-delavirdine).
